The term IC50 denotes the concentration needed to halve the response being measured. A word on the MRT: it is a mean duration of stay, worked out from the concentration-time curve. The efflux ratio is a quotient of directional permeabilities that is used to spot active efflux. As usually defined, the bioavailability is the share of a dose that reaches the circulation, judged against a reference dose that is usually intravenous. What is called inhibition in vivo is how much of the control response was suppressed.

The target in data set [1] is Leucine-rich repeat serine/threonine-protein kinase 2 (Homo sapiens, UniProt Q5S007, G2019S). Briefly: Inhibition of recombinant N-terminal GST-fused LRRK2 […] mutant (970 to 2527 residues) (unknown origin) preincubated with enzyme for 15 mins followed by fluorescein-labeled LRRKtide peptide substrate and ATP addition for 90 mins by TR-FRET assay.
The nature of data set [2]: Intrinsic clearance in Wistar Han rat at 2 mg/kg, iv by LC-MS/MS analysis. The format is ADME, organism-based. Conditions: in vivo; call rule not given here.
Data set [3] is described as follows: MRT in Wistar Han rat at 2 mg/kg, iv by LC-MS/MS analysis. Particulars: in vivo. The format is ADME, organism-based.
The test system of data set [4] is mouse Bcrp. The data set can be described thus: Efflux ratio of apparent permeability across basolateral to apical over apical to basolateral side in mouse Bcrp-transfected dog MDCK-II cells at 0.1 to 1 uM measured after 3 hrs by LC/MS/MS analysis. The format is ADME, cell-based, Canis lupus familiaris. Particulars: dose 0.1-1 µM.
The subject of data set [5] is Salmonella typhimurium. The data set can be described thus: Mutagenicity in Salmonella typhimurium TA98 at 30 to 5000 ug incubated for 48 hrs in presence of liver S9 fraction by AMES test. The format is toxicity, organism-based, Salmonella enterica subsp. enterica serovar Typhimurium. Particulars: s9, 48 h, dose 30-5000 µg.
A short description of data set [6]: Oral bioavailability in Rhesus monkey at 2 mg/kg by LC-MS/MS analysis. The format is ADME, organism-based, Macaca mulatta. Conditions: in vivo.
Data set [7] can be described thus: Unbound brain-to-plasma concentration ratio in CD rat 1 to 100 mg/kg, po measured after 120 mins by LC/MS/MS analysis. Conditions: brain and plasma (unbound), dose 1-100 mg/kg, read-out: K(p,uu,brain). The format is ADME, organism-based.
Data set [8] can be described thus: Cardiotoxicity in telemetered Wistar Han rat assessed as elevation of diastolic blood pressure at 100 mg/kg, po. Particulars: in vivo. The format is toxicity, organism-based.
Data set [9] is described as follows: Thermodynamic solubility of the compound in FaSSIF measured after 24 hrs by reverse phase UPLC analysis. The format is physicochemical. Conditions: read-out: Therm_solubility.
Data set [10] can be described thus: Toxicity in rat assessed as induction of liver injury at 40 to 400 mg/kg, po qd administered for 4 days. Particulars: in vivo, 96 h, dose 40-400 mg/kg, time 4 day. The format is organism-based.
For data set [11], the system named is GSTA5. The data set can be described thus: Toxicity in rat assessed as fold increase in GSTA5 transcriptional activity in liver at 75 mg/kg, po bid administered for 4 days relative to control. The format is organism-based. Conditions: time 4 day, read-out: FC.
In data set [12] the test system is UGT1A6. Briefly: Toxicity in rat assessed as fold increase in UGT1A6 transcriptional activity in liver at 75 mg/kg, po bid administered for 4 days relative to control. The format is organism-based. Conditions: time 4 day, read-out: FC.
Data set [13] is described as follows: Toxicity in rat assessed as elevation of PXR gene expression at 10 to 75 mg/kg, po bid administered for 4 days. The format is organism-based. Particulars: in vivo, 96 h, dose 10-75 mg/kg, time 4 day.
Data set [14] is described as follows: Toxicity in rat assessed as elevation of AhR gene expression at 10 to 75 mg/kg, po bid administered for 4 days. The format is organism-based. Conditions: in vivo, 96 h, dose 10-75 mg/kg, time 4 day.
The nature of data set [15]: Toxicity in rat assessed as elevation of inflammatory response related gene expression at 10 to 75 mg/kg, po bid administered for 4 days. The format is organism-based. Conditions: in vivo, 96 h, dose 10-75 mg/kg, time 4 day.
Data set [16] in a line: In vivo inhibition of LRRK2 in CD rat assessed as reduction in phosphorylation at Ser935 residue in striatum at 3 mg/kg, po measured after 2 hrs by MSD assay. The format is functional.
Data set [17] in a line: In vivo inhibition of LRRK2 in CD rat assessed as reduction in phosphorylation at Ser935 residue in striatum at 100 mg/kg, po measured after 2 hrs by MSD assay. The format is functional.

Values after ≈ are worked out from the molar mass of the structure shown.

Leucine-rich repeat serine/threonine-protein kinase 2, sequence (Q5S007 whole entry G2019S, the tested form may be a part): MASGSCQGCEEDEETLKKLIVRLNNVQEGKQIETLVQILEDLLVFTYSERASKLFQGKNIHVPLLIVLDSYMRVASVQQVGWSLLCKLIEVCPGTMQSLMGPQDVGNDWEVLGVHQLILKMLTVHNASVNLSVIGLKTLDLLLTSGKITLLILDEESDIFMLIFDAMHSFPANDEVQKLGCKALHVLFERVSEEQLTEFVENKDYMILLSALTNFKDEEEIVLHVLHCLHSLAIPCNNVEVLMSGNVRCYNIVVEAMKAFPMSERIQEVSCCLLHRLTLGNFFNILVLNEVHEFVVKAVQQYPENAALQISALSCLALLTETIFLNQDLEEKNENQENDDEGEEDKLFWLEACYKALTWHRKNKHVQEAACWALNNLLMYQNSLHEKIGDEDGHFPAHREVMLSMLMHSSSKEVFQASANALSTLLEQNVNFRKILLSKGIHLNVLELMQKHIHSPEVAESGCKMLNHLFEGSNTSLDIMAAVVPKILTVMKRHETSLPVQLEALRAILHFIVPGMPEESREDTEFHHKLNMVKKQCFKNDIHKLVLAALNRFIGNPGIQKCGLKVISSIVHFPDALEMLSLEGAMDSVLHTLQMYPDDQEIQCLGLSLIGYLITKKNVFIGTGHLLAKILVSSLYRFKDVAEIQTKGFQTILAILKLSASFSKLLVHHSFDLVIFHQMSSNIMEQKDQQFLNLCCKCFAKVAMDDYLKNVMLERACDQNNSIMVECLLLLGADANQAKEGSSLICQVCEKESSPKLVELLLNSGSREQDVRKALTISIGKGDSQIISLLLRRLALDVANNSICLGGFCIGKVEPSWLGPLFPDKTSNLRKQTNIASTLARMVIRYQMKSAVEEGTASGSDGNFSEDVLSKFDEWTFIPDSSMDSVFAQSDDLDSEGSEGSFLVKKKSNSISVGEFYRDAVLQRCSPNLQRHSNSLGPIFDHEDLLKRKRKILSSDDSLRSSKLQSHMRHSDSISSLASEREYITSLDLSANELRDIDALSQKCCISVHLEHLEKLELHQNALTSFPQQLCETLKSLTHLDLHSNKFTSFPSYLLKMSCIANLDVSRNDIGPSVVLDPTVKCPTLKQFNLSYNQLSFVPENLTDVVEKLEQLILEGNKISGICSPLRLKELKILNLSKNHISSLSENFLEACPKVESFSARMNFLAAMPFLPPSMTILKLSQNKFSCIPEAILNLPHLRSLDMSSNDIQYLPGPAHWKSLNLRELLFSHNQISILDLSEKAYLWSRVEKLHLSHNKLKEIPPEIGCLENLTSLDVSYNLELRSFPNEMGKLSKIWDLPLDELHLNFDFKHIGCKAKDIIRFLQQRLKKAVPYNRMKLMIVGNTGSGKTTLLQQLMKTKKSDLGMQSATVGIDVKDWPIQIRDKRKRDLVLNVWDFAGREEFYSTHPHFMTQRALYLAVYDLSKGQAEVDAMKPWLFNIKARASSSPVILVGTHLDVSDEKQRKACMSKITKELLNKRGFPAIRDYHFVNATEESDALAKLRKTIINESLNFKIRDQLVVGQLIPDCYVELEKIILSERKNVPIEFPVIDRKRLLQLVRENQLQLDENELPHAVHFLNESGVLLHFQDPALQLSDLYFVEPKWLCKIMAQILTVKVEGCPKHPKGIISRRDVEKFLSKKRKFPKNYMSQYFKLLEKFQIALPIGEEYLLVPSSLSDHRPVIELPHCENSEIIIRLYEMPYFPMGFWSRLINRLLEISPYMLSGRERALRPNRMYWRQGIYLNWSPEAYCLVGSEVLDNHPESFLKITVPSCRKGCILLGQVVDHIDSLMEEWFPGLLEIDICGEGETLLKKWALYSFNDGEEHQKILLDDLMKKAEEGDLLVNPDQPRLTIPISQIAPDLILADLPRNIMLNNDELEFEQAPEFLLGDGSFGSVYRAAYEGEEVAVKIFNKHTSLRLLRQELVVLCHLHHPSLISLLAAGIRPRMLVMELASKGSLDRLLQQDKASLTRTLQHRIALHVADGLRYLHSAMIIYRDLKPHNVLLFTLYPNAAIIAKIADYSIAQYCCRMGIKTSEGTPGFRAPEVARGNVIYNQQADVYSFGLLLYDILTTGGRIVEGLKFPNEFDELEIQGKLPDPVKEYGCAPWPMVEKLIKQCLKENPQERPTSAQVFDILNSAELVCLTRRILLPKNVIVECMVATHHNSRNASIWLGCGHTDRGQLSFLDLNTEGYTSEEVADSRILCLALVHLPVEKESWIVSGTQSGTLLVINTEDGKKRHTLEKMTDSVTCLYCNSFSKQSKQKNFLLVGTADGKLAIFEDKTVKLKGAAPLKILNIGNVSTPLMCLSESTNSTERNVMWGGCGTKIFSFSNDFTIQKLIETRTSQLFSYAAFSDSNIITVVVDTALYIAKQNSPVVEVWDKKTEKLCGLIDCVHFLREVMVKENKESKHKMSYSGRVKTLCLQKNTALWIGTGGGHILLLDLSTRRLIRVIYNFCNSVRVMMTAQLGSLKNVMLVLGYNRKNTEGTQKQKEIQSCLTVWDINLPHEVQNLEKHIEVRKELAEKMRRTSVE

Regarding `O[C@H]1COC[C@H]1N1CC[C@@H](c2cc3nc(Nc4cnn([C@@H]5CC5(F)F)c4Cl)ncc3cc2Cl)[C@H](F)C1`, in [1], the IC50 is below 600 pM. Also, the CL in data set [2] was found to be 1278 mL/min/kg. Also, the mean residence time MRT in [3] is 3.9 h. In addition, in data set [4], the efflux ratio at 3 h, up to 1 µM was found to be 3.8. Besides, the Activity result is on record as “Non-Toxic” in data set [5]; “Toxic” in [8]; “Non-Toxic” in [10]; “Non-Toxic” in data set [13]; “Non-Toxic” in data set [14]; “Non-Toxic” in [15]. For the same compound, the bioavailability in data set [6] was determined as 18%. The Kp uu at 2 h in [7] was 0.36. The solubility thermodynamic at 24 h in data set [9] came out at 4 µg/mL (≈ 7.36 µM). The fold induction at 96 h in [11] came out at 5; in data set [12] it was 2.5. Moreover, the inhibition in vivo at 3 mg/kg in data set [16] came to 32%. In addition, in [17], the inhibition in vivo at 100 mg/kg is 97%.

The values above are taken from ChEMBL document CHEMBL5042510, “Structure-Guided Discovery of Aminoquinazolines as Brain-Penetrant and Selective LRRK2 Inhibitors” (J Med Chem, 2022).
